Data published in patent US20060069132A1, “Azolecarboxamide herbicides” (priority 2004, published 2006).

Key:
[1] = tested on: Surinam grass; test: Test E pre-/postemergence herbicide test; format: in vivo, Urochloa decumbens
Excerpt: (§1) Seeds of plant species selected from bipinnate beggarticks (Bidens bipinnata L.), hairy beggarticks (Bidens radiata Thuill.), bermudagrass (Cynodon dactylon (L.) Pers.), Surinam grass (Urochloa decumbens (Staph) R. D. Webster, previously named Brachiaria decumbens Stapf), large crabgrass (Digitaria sanguinalis (L.) Scop.), green foxtail (Setaria viridis (L.) P. Beauv.), goosegrass (Eleusine indica (L.) Gaertn.), johnsongrass (Sorghum halepense (L.) Pers.), kochia (Kochia scoparia (L.) Schrad.), pitted morningglory (Ipomoea lacunosa L.), purple nutsedge (Cyperus rotundus L.), common ragweed (Ambrosia elatior L.), mustard (Brassica nigra (L.) W. D. J. Koch), guineagrass (Panicum maximum Jacq.), dallisgrass (Paspalum dilatatum Poir.), barnyardgrass (Echinochloa crus-galli (L). P. Beauv.), southern sandbur (Cenchrus echinatus L.), common sowthistle (Sonchus oleraceous L.), prickly sida (Sida spinosa L.), Italian ryegrass (Lolium multiflorum Lam.), common purslane (Portulaca oleracea L.), broadleaf signalgrass (Brachiaria platyphylla (Griseb.) Nash), common groundsel (Senecio vulgaris L.), common chickweed (Stellaria media (L.) Vill/Cyr.), tropical spiderwort (Commelina benghalensis L.), annual bluegrass (Poa annua L.), downy bromegrass (Bromus tectorum L.), itchgrass (Rottboellia cochinchinensis (L.) L.f.), quackgrass (Elytrigia repens (L.) Nevski), Canada horseweed (Erigeron Canadensis L.), field bindweed (Convolvulus arvensis L.), spotted spurge (Euphorbia maculata L.), common mallow (Malva sylvestris (=s silvestris) L.), and Russian thistle (Salsola kali L. ssp. Ruthenica (Iljin) Soo) were planted and treated preemergence with test chemicals formulated in a non-phytotoxic solvent mixture which included a surfactant.
(§2) At the same time, plants selected from these weed species were treated with postemergence applications of some of the test chemicals formulated in the same manner. Plants ranged in height from 2 to 18 cm (1- to 4-leaf stage) for postemergence treatments. Treated plants and controls were maintained in a greenhouse for 12 to 14 days, after which time all species were compared to controls and visually evaluated. Plant response ratings, summarized in Table E, are based on a scale of 0 to 100 where 0 is no effect and 100 is complete control. A dash (-) response means no test result.

[2] = tested on: kochia; test: Test E pre-/postemergence herbicide test; format: in vivo, Kochia scoparia; conditions: Preemergence
Excerpt: as §1, §2

[3] = tested on: purple nutsedge; test: Test E pre-/postemergence herbicide test; format: in vivo, Cyperus rotundus
Excerpt: as §1, §2

[4] = tested on: itchgrass; test: Test E pre-/postemergence herbicide test; format: in vivo, Rottboellia cochinchinensis
Excerpt: as §1, §2

[5] = tested on: tropical spiderwort; test: Test E pre-/postemergence herbicide test; format: in vivo, Commelina benghalensis
Excerpt: as §1, §2

[6] = tested on: annual bluegrass; test: Test E pre-/postemergence herbicide test; format: in vivo, Poa annua
Excerpt: as §1, §2

[7] = tested on: dallisgrass; test: Test E pre-/postemergence herbicide test; format: in vivo, Paspalum dilatatum
Excerpt: as §1, §2

[8] = tested on: downy bromegrass; test: Test C postemergence herbicide test; format: in vivo, Bromus tectorum
Summary of the method: (§3)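 Ratings (0 = no effect, 100 = complete control) come from visual comparison with untreated plants after 12 to 14 days in the greenhouse. Treatment was postemergence at the 1- to 4-leaf stage (2–18 cm), or at the 2-leaf stage for the flooded paddy barnyardgrass.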

[9] = tested on: chickweed; test: Test C postemergence herbicide test; format: in vivo, Stellaria media
Summary of the method: as §3

[10] = Postemergence, 250 g ai/ha, scale 0 to 100
[11] = Preemergence, 125 g ai/ha, scale 0 to 100
[12] = Preemergence, 500 g ai/ha, scale 0 (no effect) to 100 (complete control)
[13] = postemergence, 125 g ai/ha, scale 0 to 100
[14] = postemergence, 62 g ai/ha, scale 0 to 100
[15] = 250 g ai/ha, scale 0 (no effect) to 100 (complete control)
[16] = 500 g ai/ha, scale 0 (no effect) to 100 (complete control)
[17] = Preemergence, 62 g ai/ha, scale 0 to 100
[18] = Preemergence, 250 g ai/ha, scale 0 (no effect) to 100 (complete control)
[19] = Postemergence, 500 g ai/ha, scale 0 to 100
[20] = Postemergence, 250 g ai/ha, scale 0 to 100, 0 no effect, 100 complete control
[21] = Preemergence, 125 g ai/ha, scale 0 (no effect) to 100 (complete control)

What does the source list for CCc1nn(C(C)(C)C)cc1C(=O)Nc1cc(C(=O)N(C)C)ccc1F [Compound 222, N-[5-[(dimethylamino)carbonyl]-2-fluorophenyl]-1-(1,1-dimethylethyl)-3-ethyl-1H-pyrazole-4-carboxamide]?
Plant response rating, Surinam Grass [1, 10]: 80; Plant response rating, Surinam Grass [1, 11]: 90; Plant response rating, Surinam Grass [1, 12]: 100; Plant response rating, Surinam Grass [1, 13]: 80; Plant response rating, Surinam Grass [1, 14]: 50; Plant response rating, Kochia ([2]; 62 g ai/ha, scale 0 to 100): 30; Plant response rating, Kochia ([2]; 125 g ai/ha, scale 0 to 100): 100; Plant response rating, Kochia [2, 15]: 100; Plant response rating, Kochia [2, 16]: 100; Plant response rating, Nutsedge, Purple [3, 10]: 30; Plant response rating, Nutsedge, Purple [3, 17]: 10; Plant response rating, Nutsedge, Purple [3, 11]: 40; Plant response rating, Nutsedge, Purple [3, 18]: 70; Plant response rating, Nutsedge, Purple [3, 12]: 80; Plant response rating, Nutsedge, Purple [3, 13]: 10; Plant response rating, Nutsedge, Purple [3, 14]: 10; Plant response rating, Itchgrass [4, 10]: 70; Plant response rating, Itchgrass [4, 17]: 75; Plant response rating, Itchgrass [4, 11]: 95; Plant response rating, Itchgrass [4, 18]: 95; Plant response rating, Itchgrass [4, 12]: 95; Plant response rating, Itchgrass [4, 13]: 60; Plant response rating, Itchgrass [4, 14]: 60; Plant response rating, Spiderwort [5, 10]: 60; Plant response rating, Spiderwort [5, 12]: 95; Plant response rating, Spiderwort [5, 13]: 40; Plant response rating, Bluegrass [6, 19]: 90; Plant response rating, Bluegrass [6, 10]: 90; Plant response rating, Bluegrass [6, 17]: 90; Plant response rating, Bluegrass [6, 11]: 100; Plant response rating, Bluegrass [6, 18]: 100; Plant response rating, Bluegrass [6, 12]: 100; Plant response rating, Bluegrass [6, 13]: 80; Plant response rating, Bluegrass [6, 14]: 60; Plant response rating, Dallisgrass [7, 19]: 85; Plant response rating, Dallisgrass [7, 10]: 85; Plant response rating, Dallisgrass [7, 17]: 50; Plant response rating, Dallisgrass [7, 11]: 80; Plant response rating, Dallisgrass [7, 18]: 100; Plant response rating, Dallisgrass [7, 12]: 100; Plant response rating, Dallisgrass [7, 13]: 60; Plant response rating, Dallisgrass [7, 14]: 30

Which results are given for CCNC(=O)c1cccc(NC(=O)c2cc(C(C)(C)C)nn2CC)n1 [Compound 144]?
Plant response rating, Surinam Grass [1, 17]: 10; Plant response rating, Surinam Grass [1, 11]: 50; Plant response rating, Surinam Grass [1, 12]: 70; Plant response rating, Kochia ([2]; 62 g ai/ha, scale 0 to 100): 0; Plant response rating, Kochia ([2]; 125 g ai/ha, scale 0 (no effect) to 100 (complete control)): 60; Plant response rating, Kochia [2, 15]: 90; Plant response rating, Kochia [2, 16]: 90; Bromegrass, Downy plant response rating [8, 19]: 40; Plant response rating, Bromegrass, Downy [8, 20]: 40; Plant response rating, Bromegrass, Downy [8, 13]: 40; Plant response rating, Bromegrass, Downy [8, 14]: 20; Chickweed plant response rating [9, 19]: 100; Plant response rating, Chickweed [9, 20]: 100; Plant response rating, Chickweed [9, 13]: 100; Plant response rating, Chickweed [9, 14]: 100; Plant response rating, Nutsedge, Purple [3, 17]: 0; Plant response rating, Nutsedge, Purple [3, 21]: 30; Plant response rating, Nutsedge, Purple [3, 18]: 30; Plant response rating, Nutsedge, Purple [3, 12]: 50; Plant response rating, Itchgrass [4, 17]: 20; Plant response rating, Itchgrass [4, 21]: 70; Plant response rating, Itchgrass [4, 18]: 70; Plant response rating, Itchgrass [4, 12]: 75; Plant response rating, Spiderwort [5, 17]: 60; Plant response rating, Spiderwort [5, 21]: 60; Plant response rating, Spiderwort [5, 18]: 60; Plant response rating, Spiderwort [5, 12]: 100; Plant response rating, Bluegrass [6, 17]: 80; Plant response rating, Bluegrass [6, 21]: 90; Plant response rating, Bluegrass [6, 18]: 100; Plant response rating, Bluegrass [6, 12]: 100; Plant response rating, Dallisgrass [7, 17]: 0; Plant response rating, Dallisgrass [7, 21]: 30; Plant response rating, Dallisgrass [7, 18]: 60; Plant response rating, Dallisgrass [7, 12]: 80

How did the “Plant response rating, Surinam Grass” value [1, 19] turn out when CCNC(=O)c1ccc(F)c(NC(=O)c2cn(C(C)(C)C)nc2CC)c1 [Compound 193] was run?
The value was 90.

What about the “Plant response rating, Surinam Grass” value [1, 10] of the same molecule?
The value was 85.

And the “Plant response rating, Surinam Grass” value [1, 11]?
The value was 80.

And the “Plant response rating, Surinam Grass” value [1, 12]?
The value was 100.

And the “Plant response rating, Surinam Grass” value [1, 13]?
Its value is 70.

And the “Plant response rating, Surinam Grass” value [1, 14]?
Its value is 10.

And the “Plant response rating, Kochia” value ([2]; 62 g ai/ha, scale 0 to 100)?
Its value is 100.

What about the “Plant response rating, Kochia” value ([2]; 125 g ai/ha, scale 0 to 100) of the same molecule?
The value was 100.

And the “Plant response rating, Kochia” value [2, 15]?
The value was 100.

And the “Plant response rating, Kochia” value [2, 16]?
Its value is 100.

And the “Plant response rating, Nutsedge, Purple” value [3, 19]?
The value was 70.

And the “Plant response rating, Nutsedge, Purple” value [3, 10]?
Its value is 40.

And the “Plant response rating, Nutsedge, Purple” value [3, 17]?
The value was 0.

What about the “Plant response rating, Nutsedge, Purple” value [3, 11] of the same molecule?
Its value is 30.

What about the “Plant response rating, Nutsedge, Purple” value [3, 18] of the same molecule?
The value was 50.

What about the “Plant response rating, Nutsedge, Purple” value [3, 12] of the same molecule?
The value was 80.

And the “Plant response rating, Nutsedge, Purple” value [3, 13]?
The value was 20.

What about the “Plant response rating, Nutsedge, Purple” value [3, 14] of the same molecule?
Its value is 0.

And the “Plant response rating, Itchgrass” value [4, 19]?
The value was 75.

What about the “Plant response rating, Itchgrass” value [4, 10] of the same molecule?
Its value is 60.

What about the “Plant response rating, Itchgrass” value [4, 17] of the same molecule?
The value was 20.

What about the “Plant response rating, Itchgrass” value [4, 11] of the same molecule?
Its value is 70.

What about the “Plant response rating, Itchgrass” value [4, 18] of the same molecule?
Its value is 80.

And the “Plant response rating, Itchgrass” value [4, 12]?
The value was 100.

What about the “Plant response rating, Itchgrass” value [4, 13] of the same molecule?
The value was 60.

And the “Plant response rating, Itchgrass” value [4, 14]?
Its value is 30.

And the “Plant response rating, Spiderwort” value [5, 19]?
Its value is 70.

And the “Plant response rating, Spiderwort” value [5, 10]?
The value was 50.

And the “Plant response rating, Spiderwort” value [5, 11]?
The value was 80.

And the “Plant response rating, Spiderwort” value [5, 18]?
The value was 90.

And the “Plant response rating, Spiderwort” value [5, 12]?
Its value is 95.

And the “Plant response rating, Spiderwort” value [5, 13]?
The value was 20.

And the “Plant response rating, Bluegrass” value [6, 19]?
Its value is 85.

What about the “Plant response rating, Bluegrass” value [6, 10] of the same molecule?
The value was 70.

And the “Plant response rating, Bluegrass” value [6, 17]?
The value was 80.

And the “Plant response rating, Bluegrass” value [6, 11]?
Its value is 100.

And the “Plant response rating, Bluegrass” value [6, 18]?
The value was 100.

And the “Plant response rating, Bluegrass” value [6, 12]?
The value was 100.

And the “Plant response rating, Bluegrass” value [6, 13]?
Its value is 50.

What about the “Plant response rating, Bluegrass” value [6, 14] of the same molecule?
The value was 20.

And the “Plant response rating, Dallisgrass” value [7, 19]?
The value was 90.

What about the “Plant response rating, Dallisgrass” value [7, 10] of the same molecule?
Its value is 90.

And the “Plant response rating, Dallisgrass” value [7, 17]?
The value was 40.

And the “Plant response rating, Dallisgrass” value [7, 11]?
Its value is 95.

What about the “Plant response rating, Dallisgrass” value [7, 18] of the same molecule?
The value was 95.

What about the “Plant response rating, Dallisgrass” value [7, 12] of the same molecule?
Its value is 100.

What about the “Plant response rating, Dallisgrass” value [7, 13] of the same molecule?
The value was 40.

What about the “Plant response rating, Dallisgrass” value [7, 14] of the same molecule?
Its value is 10.
